Row | SMILES | melting point [°C]
1 | Oc1nnc2c(Cl)cccn12 | 269 to 271
2 | CC(=O)N(C)c1ccc(S(N)(=O)=O)cc1 | 153 to 155
3 | Nc1ccc2c(c1)C(=O)NS2(=O)=O | 286 to 288
4 | Cc1cccc(C)c1Nc1nnc(SCC(=O)O)s1 | 207 to 209
5 | CSc1cc2c(cc1C=O)OCCO2 | 112 to 114
6 | CC(=O)N1CCc2cc(C(=O)C(C)Cl)ccc21 (stereo unspecified) | 129 to 131
7 | Cc1cc(N)nn1-c1ccc(Cl)cc1Cl | 101 to 103
8 | CC(=O)NC1=NN(C(C)=O)C(C)(c2ccccc2)S1 (stereo unspecified) | 223 to 225
9 | O=S(=O)(c1cccc(CO)c1)N1CCOCC1 | 96 to 98
10 | NC(=O)c1c(-c2ccc(C(F)(F)F)cc2)csc1N | 158 to 160
11 | NC(=O)CCc1nnc(S)n1Cc1ccco1 | 204 to 206
12 | CN1CCN(CC(N)c2ccccc2)CC1 (stereo unspecified) | 58 to 60
13 | CN(Cc1nn[nH]n1)C(=O)c1ccccc1 | 136 to 138
14 | CC(C)CC(N)C(=O)N1CCNC(=O)C1 (stereo unspecified) | 162 to 164
15 | CC(C)(C)n1ccnc1S | 192 to 194
16 | O=C(CO)NC1CCCc2ccccc21 (stereo unspecified) | 114 to 116
17 | Cc1nc(C2COCCN2C(=O)OC(C)(C)C)no1 (stereo unspecified) | 96 to 98
18 | O=C(O)c1nc(OCC(F)(F)F)ccc1Cl | 85 to 87
19 | N#CCC(=O)Nc1ccccc1Cl | 124 to 126
20 | O=C(O)Cc1csc(NC(=O)c2cccs2)n1 | 194 to 196
21 | CCCN1CCc2c(sc(N)c2C(=O)OCC)C1 | 69 to 73
22 | O=C(O)c1ccc(-c2ccc(-c3ccccc3)cc2)s1 | 272 to 274
23 | Nc1ccc(N2CCCCC2)c(Cl)c1 | 53 to 55
24 | O=C(O)CC(Br)C(=O)c1ccc(Cl)cc1 (stereo unspecified) | 113 to 117

Row | SMILES | melting point [°C]
25 | CNS(=O)(=O)c1cc(C(=O)O)c(C)o1 | 154 to 156
26 | COC(=O)c1c(C(=O)OC)c(-c2ccc(N)cc2)n2c1CCC2 | 182 to 184
27 | CCOC(=O)c1cnn(-c2nccs2)c1N | 104 to 106
28 | O=C(O)C(Oc1ccc(Br)cc1Cl)c1ccccc1 (stereo unspecified) | 135 to 137
29 | Cc1sc(N)nc1-c1ccc2c(c1)CCCO2 | 209 to 211
30 | CCOC(=O)/C(C#N)=C/Nc1ccccc1OCC | 141 to 143
31 | CC(C)(NC(=O)Nc1ccccc1)C(=O)O | 165 to 167
32 | CSc1ccc(C(=O)CCl)cc1 | 72 to 74
33 | CCNCC(=O)Nc1ccc(OC)cc1 | 88 to 90
34 | Cc1ccc(Cl)c(C(=O)O)c1N | 152 to 154
35 | CC(C)CN1C(=O)CC(=O)NC1=O | 144 to 146
36 | Cc1nn(-c2cccc(Cl)c2)c2ncc(Br)cc12 | 114 to 116
37 | Cc1sc(-n2c(C)ccc2C)c(C(=O)O)c1C | 171 to 173
38 | CN(C)C(=O)COc1cccc(C(=O)O)c1 | 193 to 195
39 | CNC(=O)COc1cccc(Br)c1 | 94 to 96
40 | CNS(=O)(=O)c1ccc(C)c(C(=O)O)c1 | 170 to 172
41 | Cc1ccc(N)c(N)c1C | 49 to 51
42 | Nc1c(Cl)cc(S(=O)(=O)Cl)cc1Cl | 134 to 136
43 | COc1cccc(C(=O)NN2C(=O)CSC2=S)c1 | 156 to 158
44 | c1ccc2c(c1)NCCS2 | 34 to 38
45 | Cc1cc(S(N)(=O)=O)cc([N+](=O)[O-])c1C | 180 to 182
46 | CC1(C)CN(CC(N)=NO)CCO1 | 75 to 77
47 | O=C(O)c1ccc(Br)cc1I | 170 to 172
48 | O=C1C=CC(=O)N1c1ccc(F)c(Cl)c1 | 159 to 161

Row | SMILES | melting point [°C]
49 | Cc1noc(-c2cccnc2Cl)n1 | 65 to 67
50 | NC(=O)Cc1cccc(C(F)(F)F)c1 | 106 to 108
51 | O=c1cc(O)nc(S)n1-c1ccc(Cl)cc1 | 188 to 190
52 | Nc1ccc(S(=O)(=O)NC2CN3CCC2CC3)cc1 (stereo unspecified) | 168 to 170
53 | O=C(O)c1coc(-c2ccccc2Cl)n1 | 179 to 181
54 | Nc1nc(Cc2ccc(Br)cc2)cs1 | 146 to 148
55 | CCn1ncc(C(=O)O)c1C(F)(F)F | 136 to 138
56 | Cc1ccc(C(=O)O)cc1NC(=O)c1ccco1 | 230 to 232
57 | Brc1cnn(-c2cccnc2)c1 | 126 to 128
58 | Cc1cc(C(=O)O)c(C)n1-c1ccccn1 | 187 to 189
59 | O=C(CCl)NC1CCN(Cc2ccccc2)CC1 | 117 to 119
60 | O=C(O)C=Cc1cc(Br)cs1 | 169 to 171
61 | NS(=O)(=O)c1cccc2ncccc12 | 179 to 181
62 | O=C1OCCN1c1ccc([N+](=O)[O-])cc1 | 154 to 156
63 | CCOc1ccc(NC(=S)NN)cc1 | 178 to 182
64 | Fc1ccc(-c2cncc(Cl)n2)cc1 | 95 to 97
65 | COc1ccc(Br)cc1Cl | 69 to 71
66 | NC(=O)c1cc(Br)c(N)c(Br)c1 | 182 to 184
67 | NCc1ccc(N2CCNCC2)cc1 | 163 to 165
68 | Cc1c(C)c(C)c(C(=O)CCl)c(C)c1C | 70 to 72
69 | NC(=O)c1ccsc1N | 160 to 162
70 | O=C1NCC(=O)N2CCCCC12 (stereo unspecified) | 153 to 155
71 | O=C(O)CSc1ncn[nH]1 | 154 to 156

Reference: a melting point compilation (Tetko et al.)
